Results published in PMC5095144, “Purification and characterization of an extracellular β‐glucosidase from Sporothrix schenckii” (FEBS Open Bio, 2016).
Blank lines part the entries; values can stand above or below the molecule they belong to.

How the values were obtained:
[1] = system: T1, extracellular β-glucosidase; test: fluorometric 4-MU release, Michaelis-Menten nonlinear regression; assay type: biochemical, Sporothrix schenckii; conditions: 100 mM sodium citrate pH 5, 45 °C; substrate 0–15 μM
T1 construct: gene beta-D-glucoside glucohydrolase; native, secreted, purified from culture filtrate of cellulose-grown mycelial form

[2] = system: T1, extracellular β-glucosidase; test: p-nitrophenol release at […] nm, Michaelis-Menten nonlinear regression; assay type: biochemical, Sporothrix schenckii; conditions: 100 mM sodium citrate pH 5, 45 °C; substrate 0–17.5 mM (below the fitted Km)
[3] = molecular target: extracellular β-glucosidase from Sporothrix schenckii (Sporothrix schenckii); test: SEC; Sephacryl S200-HR column (1 x 119 cm), 50 mM phosphate buffer pH 7, 4 °C, calibrated with standard proteins; native mass compared with the subunit mass from 7% SDS/PAGE
[4] = molecular target: extracellular β-glucosidase from Sporothrix schenckii (Sporothrix schenckii); test: zymogram after SDS/PAGE (semidenaturing) and native PAGE; 7% gels run at 4 °C, sample incubated 30 min at 37 °C in sample buffer; activity shown with 4-MUG; CFCF after 3 days on cellulose

Molecule: Cc1cc(=O)oc2cc(O[C@@H]3O[C@H](CO)[C@@H](O)[C@H](O)[C@H]3O)ccc12 [4-methylumbelliferyl β-D-glucopyranoside]
- Km [1]: 0.012 ± 0.001 mM

Molecule: O=[N+]([O-])c1ccc(O[C@@H]2O[C@H](CO)[C@@H](O)[C@H](O)[C@H]2O)cc1 [p-nitrophenyl β-D-glucopyranoside]
- Km [2]: 44.1 ± 6.11 mM

- stoichiometry N [3]: 2
- stoichiometry N [4]: 2
Molecule: extracellular β-glucosidase from Sporothrix schenckii (enzyme)
